According to ChEMBL document CHEMBL1152854, “Synthesis, characterization and in vitro antibacterial activity of new steroidal 5-en-3-oxazolo and thiazoloquinoxaline” (Eur J Med Chem, 2008):
≈ marks a conversion by molar mass, not a printed value.

Legend:
Escherichia coli [1] = test: Antimicrobial activity against Escherichia coli at 200 ug/mL after 24 hrs by disk diffusion method; type: functional; conditions: read-out: IZ
Streptococcus pyogenes [2] = test: Antimicrobial activity against Streptococcus pyogenes after 24 hrs by broth microdilution method; type: functional, organism-based
Salmonella typhimurium [3] = test: Antimicrobial activity against Salmonella Typhimurium at 200 ug/mL after 24 hrs by disk diffusion method; type: functional, Salmonella enterica subsp. enterica serovar Typhimurium; conditions: Salmonella enterica, read-out: IZ
Staphylococcus aureus [4] = test: Antimicrobial activity against Staphylococcus aureus at 200 ug/mL after 24 hrs by disk diffusion method; type: functional; conditions: read-out: IZ
Streptococcus pyogenes [5] = test: Antimicrobial activity against Streptococcus pyogenes at 200 ug/mL after 24 hrs by disk diffusion method; type: functional; conditions: read-out: IZ
Staphylococcus aureus [6] = test: Antimicrobial activity against Staphylococcus aureus after 24 hrs by broth microdilution method; type: functional, organism-based
Salmonella typhimurium [7] = test: Antimicrobial activity against Salmonella Typhimurium after 24 hrs by broth microdilution method; type: functional, organism-based, Salmonella enterica subsp. enterica serovar Typhimurium; conditions: Salmonella enterica
Escherichia coli [8] = test: Antimicrobial activity against Escherichia coli after 24 hrs by broth microdilution method; type: functional, organism-based

Row | Compound | zone of inhibition at 200 µg/mL (Escherichia coli [1]) | IC50 (Streptococcus pyogenes [2]) | MIC (Streptococcus pyogenes [2]) | zone of inhibition at 200 µg/mL (Salmonella typhimurium [3]) | zone of inhibition at 200 µg/mL (Staphylococcus aureus [4]) | zone of inhibition at 200 µg/mL (Streptococcus pyogenes [5]) | IC50 (Staphylococcus aureus [6]) | MIC (Staphylococcus aureus [6]) | IC50 (Salmonella typhimurium [7]) | MIC (Salmonella typhimurium [7]) | IC50 (Escherichia coli [8]) | MIC (Escherichia coli [8])
1 | CC(C)CCC[C@@H](C)[C@H]1CC[C@H]2[C@@H]3CC=C4C/C(=N/Nc5nc6nc7ccccc7nc6s5)CC[C@]4(C)[C@H]3CC[C@]12C | 21.4 mm | 0.52 µg/mL (≈ 0.891 µM) | 0.78 µg/mL (≈ 1.34 µM) | 20.4 mm | 21.2 mm | 23.2 mm | 0.54 µg/mL (≈ 0.925 µM) | 0.78 µg/mL (≈ 1.34 µM) | 0.28 µg/mL (≈ 0.48 µM) | 0.39 µg/mL (≈ 0.668 µM) | 0.24 µg/mL (≈ 0.411 µM) | 0.39 µg/mL (≈ 0.668 µM)
2 | CC(C)CCC[C@@H](C)[C@H]1CC[C@H]2[C@@H]3CC=C4C/C(=N/NC(N)=O)CC[C@]4(C)[C@H]3CC[C@]12C | 14.2 mm | 3.68 µg/mL (≈ 8.33 µM) | 6.25 µg/mL (≈ 14.1 µM) | 15.5 mm | 14.6 mm | 13.4 mm | 3.65 µg/mL (≈ 8.26 µM) | 6.25 µg/mL (≈ 14.1 µM) | 1.94 µg/mL (≈ 4.39 µM) | 3.12 µg/mL (≈ 7.06 µM) | 1.88 µg/mL (≈ 4.26 µM) | 3.12 µg/mL (≈ 7.06 µM)
3 | CC(C)CCC[C@@H](C)[C@H]1CC[C@H]2[C@@H]3CC=C4C/C(=N/NC(N)=S)CC[C@]4(C)[C@H]3CC[C@]12C | 15.5 mm | 3.66 µg/mL (≈ 8 µM) | 6.25 µg/mL (≈ 13.7 µM) | 14.5 mm | 15.2 mm | 13.5 mm | 3.68 µg/mL (≈ 8.04 µM) | 6.25 µg/mL (≈ 13.7 µM) | 3.72 µg/mL (≈ 8.13 µM) | 6.25 µg/mL (≈ 13.7 µM) | 3.68 µg/mL (≈ 8.04 µM) | 6.25 µg/mL (≈ 13.7 µM)
4 | CC(C)CCC[C@@H](C)[C@H]1CC[C@H]2[C@@H]3CC=C4C[C@@H](O)CC[C@]4(C)[C@H]3CC[C@]12C [CHOLESTEROL] | 9 mm |  |  | 8.2 mm | 9.2 mm | 7.8 mm |  |  |  |  |  | 
5 | CC1(C)S[C@@H]2[C@H](NC(=O)[C@H](N)c3ccc(O)cc3)C(=O)N2[C@H]1C(=O)O [AMOXICILLIN] | 20 mm | 1.8 µg/mL (≈ 4.93 µM) | 3.12 µg/mL (≈ 8.54 µM) | 17.2 mm | 17 mm | 18.2 mm | 1.82 µg/mL (≈ 4.98 µM) | 3.12 µg/mL (≈ 8.54 µM) | 1.85 µg/mL (≈ 5.06 µM) | 3.12 µg/mL (≈ 8.54 µM) | 1.9 µg/mL (≈ 5.2 µM) | 3.12 µg/mL (≈ 8.54 µM)
6 | CC(C)CCC[C@@H](C)[C@H]1CC[C@H]2[C@@H]3CC=C4C/C(=N/Nc5nc6nc7ccccc7nc6o5)CC[C@]4(C)[C@H]3CC[C@]12C | 23.6 mm | 0.54 µg/mL (≈ 0.951 µM) | 0.78 µg/mL (≈ 1.37 µM) | 24.5 mm | 22.5 mm | 23.4 mm | 0.48 µg/mL (≈ 0.845 µM) | 0.78 µg/mL (≈ 1.37 µM) | 0.48 µg/mL (≈ 0.845 µM) | 0.78 µg/mL (≈ 1.37 µM) | 0.26 µg/mL (≈ 0.458 µM) | 0.39 µg/mL (≈ 0.687 µM)
